Laboratory results published in ChEMBL document CHEMBL4145572, “Non-covalent Small-Molecule Kelch-like ECH-Associated Protein 1-Nuclear Factor Erythroid 2-Related Factor 2 (Keap1-Nrf2) Inhibitors and Their Potential for Targeting Central Nervous System Diseases” (J Med Chem, 2018).

Tests used:
Keap1/Nrf2 [1] = molecular target: T1, Keap1/Nrf2 (Homo sapiens, UniProt Q14145); assay: Inhibition of Keap1/NRF2 interaction in human BEAS-2B cells assessed as upregulation of NQ01 after 48 hrs by MTT assay; format: cell-based
T1 sequence (Q16236 whole entry, the tested form may be a part): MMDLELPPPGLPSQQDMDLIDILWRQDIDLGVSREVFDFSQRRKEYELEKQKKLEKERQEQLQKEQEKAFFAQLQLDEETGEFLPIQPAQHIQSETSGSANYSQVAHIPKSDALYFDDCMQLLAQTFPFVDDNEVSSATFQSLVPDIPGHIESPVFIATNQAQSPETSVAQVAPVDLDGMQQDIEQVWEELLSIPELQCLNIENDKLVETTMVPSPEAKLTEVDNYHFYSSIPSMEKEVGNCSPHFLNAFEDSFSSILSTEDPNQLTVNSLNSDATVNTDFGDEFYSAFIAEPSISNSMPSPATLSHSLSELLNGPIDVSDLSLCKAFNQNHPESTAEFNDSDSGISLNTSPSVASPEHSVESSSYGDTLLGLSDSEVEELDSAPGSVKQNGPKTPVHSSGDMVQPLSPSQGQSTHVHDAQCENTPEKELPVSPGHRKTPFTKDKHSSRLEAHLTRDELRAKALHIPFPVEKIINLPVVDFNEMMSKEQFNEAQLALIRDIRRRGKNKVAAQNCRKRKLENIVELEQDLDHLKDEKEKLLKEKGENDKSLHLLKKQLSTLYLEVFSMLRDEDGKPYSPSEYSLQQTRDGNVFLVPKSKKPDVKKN
T1 sequence (Q14145 whole entry, the tested form may be a part): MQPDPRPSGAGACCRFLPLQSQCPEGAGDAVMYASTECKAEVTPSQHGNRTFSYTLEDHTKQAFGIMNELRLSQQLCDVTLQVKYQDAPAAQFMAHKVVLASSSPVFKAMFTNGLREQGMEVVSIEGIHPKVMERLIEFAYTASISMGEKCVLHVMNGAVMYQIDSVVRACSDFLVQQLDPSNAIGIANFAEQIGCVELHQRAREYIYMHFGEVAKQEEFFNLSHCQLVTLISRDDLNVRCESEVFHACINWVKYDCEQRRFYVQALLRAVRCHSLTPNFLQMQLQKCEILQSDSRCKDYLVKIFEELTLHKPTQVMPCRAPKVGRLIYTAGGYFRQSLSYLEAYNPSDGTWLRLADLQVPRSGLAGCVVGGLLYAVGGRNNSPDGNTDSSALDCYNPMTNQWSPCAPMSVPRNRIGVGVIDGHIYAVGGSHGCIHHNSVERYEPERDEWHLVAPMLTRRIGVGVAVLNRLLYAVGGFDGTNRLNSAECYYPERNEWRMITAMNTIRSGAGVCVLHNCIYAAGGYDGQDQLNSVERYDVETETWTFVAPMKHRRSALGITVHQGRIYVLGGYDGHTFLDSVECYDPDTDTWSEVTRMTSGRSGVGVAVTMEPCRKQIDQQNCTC

[2] = molecular target: T2, Kelch-like ECH-associated protein 1 (Homo sapiens, UniProt Q14145); assay: Inhibition of human Keap1 kelch domain (321 to 609 residues) binding to TAMRA-labeled Nrf2-ETGE peptide after 1 hr by fluorescence polarization assay
T2 sequence (Q14145 whole entry, the tested form may be a part): as above

Keap1/Nrf2 [3] = molecular target: T1, Keap1/Nrf2; assay: Inhibition of Keap1 kelch domain (unknow origin)/Nrf2-ETGE peptide (unknown origin) interaction by fluorescence polarization assay; format: protein assay
MDR1 = assay: Efflux ratio of apparent permeability in MDCK-MDR1 cells at 10 uM up to 120 mins; format: ADME, cell-based, Canis lupus familiaris; conditions: dog
[4] = Ratio of unbound drug level in mouse brain to plasma; format: ADME; conditions: read-out: K(p,uu,brain)
Keap1/Nrf2 [5] = molecular target: T1, Keap1/Nrf2; assay: Inhibition of full length Flag/His-tagged Keap1 kelch domain (unknown origin)/full length Avi-tagged Nrf2 (unknown origin) interaction after 2.25 hrs by TR-FRET assay; format: protein assay
[6] = molecular target: T2, Kelch-like ECH-associated protein 1; assay: Activation of human GST-tagged Keap1-DC (321 to 609 residues) expressed in human Huh transformed cells after 16 hrs by ARE-based steady-glo luciferase reporter gene assay; format: cell-based
[7] = Ratio of unbound drug level in Mdr1a/1b/Bcrp knock-out mouse brain to plasma; format: ADME; conditions: read-out: K(p,uu,brain)

Structure (SMILES)	IC50 (Keap1/Nrf2 [3])	efflux ratio at 2 h, 10 µM (MDR1)	Kp uu [4]	further results
CCCC[C@@H]1CCCN1C(=O)c1cccc(-c2cccc(-n3ncc(C(=O)O)c3C3CC3)c2)c1				EC50 (Keap1/Nrf2 [1]): 79 nM; IC50 [2]: 10 to 100 nM
O=C1c2ccccc2C(=O)N1C[C@@H]1c2ccccc2CCN1C(=O)C1CCCCC1	> 100000 nM	0.7	0.3	
C[C@H](Oc1cccc(-c2cccc(-n3ncc(C(=O)O)c3[C@@H]3C[C@H]3c3cn(C)nn3)c2)c1)C1CCCCC1				IC50 (Keap1/Nrf2 [5]): < 10 nM
O=C(NCc1ccccn1)Nc1nnc(-c2ccco2)o1				EC2 [6]: 1.36 µM
O=C(O)[C@H]1CCCC[C@H]1C(=O)N1CCc2ccccc2[C@H]1Cc1ccccc1	> 100000 nM	0.7	0.9	
O=C(O)[C@H]1NCCC[C@H]1C(=O)N1CCc2ccccc2[C@H]1CN1C(=O)c2ccccc2C1=O			< 0.01	
O=C(O)[C@H]1CCCC[C@H]1C(=O)N1CCc2ccccc2[C@H]1CN1Cc2ccccc2C1=O	1100 nM	7.5		
O=C(O)[C@H]1CCCC[C@H]1C(=O)N1CCc2ccccc2[C@H]1CN1C(=O)c2ccccc2C1=O			< 0.01	Kp uu [7]: 0.4
